Results reported in patent US20040266659A1, “[…] THAT ENHANCE RECALL AND LUCIDITY DURING DREAMING” (priority 2003, published 2004).
Where two headings read alike, the source gives them in different places.

Columns and labels:
[1] = system: REM sleep; settings: cited from earlier work
[2] = system: lucid dreaming
Description: These include: 1. Using a cholinergic agonist (e.g., nicotine).

[3] = system: normal volunteers self-selected for high dream recall and interest in lucid dreaming; assay: randomized, double blind, placebo-controlled crossover trial of donepizil for lucid dreaming; type: in vivo, human; settings: for odds of lucid dreaming: placebo 0.031
Description: Subjects collected dream content and other self-report measures on three nights, separated by a washout period of at least one week. […] After each spontaneous awakening during the three nights, Ss evaluated dream content on a range of measures including bizarreness, complexity, and intensity, affect, cognitive clarity, lucidity, and control. They also estimated sleep quality, insomnia, and degree of any adverse effects.

[4] = rivastigmin 6-12 mg dose, galantamine 8-16 mg

COC(=O)C1=CCCN(C)C1 [arecoline]
effect on REM sleep ([1]; scientific literature studies): triggering/intensification of REM sleep

COc1ccc2c3c1O[C@H]1C[C@@H](O)C=C[C@@]31CCN(C)C2 [galantamine]
side effects compared with Aricept [2, 4]: perhaps fewer side effects

CCN(C)C(=O)Oc1cccc([C@H](C)N(C)C)c1 [Exelon, rivastigmin]
efficacy compared with Aricept [2, 4]: work as well as
side effects compared with Aricept [2, 4]: perhaps fewer side effects

huperzine
outcome of test for lucid dreaming enhancement ([2]; dose correspondence with Aricept not yet worked out): promising results

COc1cc2c(cc1OC)C(=O)C(CC1CCN(Cc3ccccc3)CC1)C2 (centres unmarked) [donepizil]
levels of dream variables, 5 mg dose vs placebo ([3]; 5 mg compared to placebo): significant elevations
odds of lucid dreaming ([3]; 5 mg): 0.429
levels of dream variables, 10 mg dose vs 5 mg dose ([3]; 10 mg compared to 5 mg): significantly higher levels
odds of lucid dreaming ([3]; 10 mg): 0.754
self-reported cognitive clarity, self-reflection and lucidity during dreaming, compared to placebo ([3]; both 5 and 10 mg dosages): significantly enhance
frequency of sleep paralysis ([3]; donepizil vs placebo): significantly elevated
Ss reporting one or more lucid dreams on the experimental nights ([3]; nine of 10 Ss, 5 or 10 mg at bedtime, only one S on a placebo night): 90%
estimated time awake during the night ([3]; of a 9.0 hr night, placebo 126 min, p<0.05): 176 min
incidence of adverse events, notably mild insomnia and gastrointestinal symptoms ([3]; primarily associated with the higher dose, two subjects nausea, one vomiting): low
cognitive clarity, lucidity, recall, control, bizarreness and visual vividness compared to placebo ([3]; self-report after each spontaneous awakening, donepizil vs placebo): significantly elevated
increase in estimated time awake during the night ([3]; vs placebo, 9.0 hr night, p<0.05): 40%

C[N+](C)(C)CCOC(N)=O [carbachol]
effect on REM sleep ([1]; microinjection in certain locations of the brain, such as the Pons): elicits extended periods of REM sleep
